The structures appear in SMILES notation.

The values below come from ChEMBL document CHEMBL1140536, “Versatile templates for the development of novel kinase inhibitors: Discovery of novel CDK inhibitors” (Bioorg Med Chem Lett, 2007).

System in one test: not listed separately
Put plainly: Inhibition of recombinant cyclin A/CDK2 expressed in Sf9 cells. Also noted: species or system Homo sapiens.
Details: not given
What is called IC50 is the concentration at which inhibition is half-maximal. Regarding `Fc1ccccc1-c1cn2ccnc2c(NCc2ccncc2)n1`, the IC50 was found to be 800 nM.

As to `Clc1cccc(-c2cc(NCc3ccncc3)n3nccc3n2)c1Cl`, the half-inhibitory concentration (IC50) was determined as 500 nM.

On to `Brc1cnc2c(NCc3ccncc3)cc(-c3ccccc3)cn12`, for which the half-maximal inhibitory concentration (IC50) turned out to be 700 nM.

With `c1ccc(-c2cc(NCc3ccncc3)n3nccc3n2)cc1`, the IC50 stood at 500 nM.

On to `Brc1cnn2c(NCc3ccncc3)cc(-c3ccccc3)cc12`, for which the half-inhibitory concentration (IC50) came out at 4500 nM.

Turning to `Brc1cnc2c(NCc3ccncc3)nc(-c3ccccc3)cn12`, the concentration for half-maximal inhibition (IC50) came to 440 nM.

The subject of the next test is A2780. The experiment in a line: Growth inhibition of A2780 cells after 24 hrs by thymidine incorporation assay. The class given is functional, cell-based. The following applies: Homo sapiens, A2780, 24 h. On the technique in general: Incorporation of labelled thymidine or its analogues reports DNA synthesis.
For `Brc1cnc2c(NCc3ccncc3)nc(-c3ccccc3)cn12`, the 50% inhibitory concentration (IC50) was 2000 nM.
